Measurements as given in patent US12692269B2, “Therapeutic compounds” (Genentech, Inc., priority 2019, dated 2026).
pEC50: −log10 of the molar value.

Columns and labels:
Assay type in all cases: binding
[1] = target: TEAD3 YAP50-100 (Homo sapiens, UniProt Q99594); experiment: TEAD3-YAP HTRF (TR-FRET) protein-protein interaction assay; conditions: TEAD3, YAP peptide 50-100, HTRF; for pEC50: read-out: TEAD3 YAP50-100 HTRF combined: EC50
Procedure, shortened: (§1)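 Read-out is the TR-FRET 665 nm/615 nm ratio, which falls when compound disrupts TEAD binding to YAP (aa 50-100) or TAZ (aa 13-57) peptide. Eu anti-His-labelled His-TEAD (aa 217-447) saw compound for 30 min, then peptide/streptavidin-XL665 for 60 min, room temperature.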

[2] = target: TEAD4 YAP50-100 (Homo sapiens, UniProt Q15561); experiment: TEAD4-YAP HTRF (TR-FRET) protein-protein interaction assay; conditions: TEAD4, YAP peptide 50-100, HTRF; for pEC50: read-out: TEAD4 YAP50-100 HTRF combined: EC50
TEAD4 YAP50-100, sequence (Q15561 217-434 limits assumed): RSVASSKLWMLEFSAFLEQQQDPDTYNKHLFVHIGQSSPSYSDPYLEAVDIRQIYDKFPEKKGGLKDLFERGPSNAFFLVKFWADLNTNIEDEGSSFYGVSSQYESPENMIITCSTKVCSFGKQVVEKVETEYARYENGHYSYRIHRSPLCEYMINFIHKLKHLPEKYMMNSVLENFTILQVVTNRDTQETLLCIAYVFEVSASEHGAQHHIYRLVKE
Procedure, shortened: as §1

[3] = target: TEAD1 YAP50-100 (Homo sapiens, UniProt P28347); experiment: TEAD1-YAP HTRF (TR-FRET) protein-protein interaction assay; conditions: TEAD1, YAP peptide 50-100, HTRF; for pEC50: read-out: TEAD1 YAP50-100 HTRF combined: EC50
TEAD1 YAP50-100, sequence (P28347 167-426 limits assumed): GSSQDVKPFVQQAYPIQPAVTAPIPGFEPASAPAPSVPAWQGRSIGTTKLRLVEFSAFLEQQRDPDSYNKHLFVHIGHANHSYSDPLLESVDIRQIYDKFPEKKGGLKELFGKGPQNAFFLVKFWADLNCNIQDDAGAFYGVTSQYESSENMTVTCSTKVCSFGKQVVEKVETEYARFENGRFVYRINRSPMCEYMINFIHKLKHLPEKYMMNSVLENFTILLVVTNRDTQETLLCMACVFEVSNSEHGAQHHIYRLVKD
Procedure, shortened: as §1

[4] = target: TEAD2 YAP50-100 (Homo sapiens, UniProt Q15562); experiment: TEAD2-YAP HTRF (TR-FRET) protein-protein interaction assay; conditions: TEAD2, YAP peptide 50-100, HTRF; for pEC50: read-out: TEAD2 YAP50-100 HTRF combined: EC50
TEAD2 YAP50-100, sequence (Q15562 217-447): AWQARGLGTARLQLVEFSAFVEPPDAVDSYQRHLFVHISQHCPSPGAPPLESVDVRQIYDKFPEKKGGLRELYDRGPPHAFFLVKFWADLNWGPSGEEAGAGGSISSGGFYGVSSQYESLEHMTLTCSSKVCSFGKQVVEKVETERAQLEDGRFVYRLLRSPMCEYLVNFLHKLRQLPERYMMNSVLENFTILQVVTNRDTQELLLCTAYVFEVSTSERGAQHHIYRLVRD
Procedure, shortened: as §1

[5] = target: TEAD4 TAZ (amino acids 13-57) (Homo sapiens, UniProt Q15561); experiment: TEAD4-TAZ HTRF (TR-FRET) protein-protein interaction assay; conditions: for TEAD4 TAZ HTRF combined: Max % Inhibition: TEAD4, TAZ peptide; for pEC50: TEAD4-TAZ HTRF, TR-FRET 665 nm/615 nm, read-out: TEAD4 TAZ HTRF combined: EC50
TEAD4 TAZ (amino acids 13-57), sequence (Q15561 217-434 limits assumed): as the sequence (Q15561 217-434 limits assumed) above
Procedure, shortened: as §1

[6] = target: TEAD2 TAZ (amino acids 13-57) (Homo sapiens, UniProt Q15562); experiment: TEAD2-TAZ HTRF (TR-FRET) protein-protein interaction assay; conditions: for TEAD2 TAZ HTRF combined: Max % Inhibition: TEAD2, TAZ peptide; for pEC50: TEAD2-TAZ HTRF, TR-FRET 665 nm/615 nm, read-out: TEAD2 TAZ HTRF combined: EC50
TEAD2 TAZ (amino acids 13-57), sequence (Q15562 217-447): as the sequence (Q15562 217-447) above
Procedure, shortened: as §1

[7] = target: TEAD1 TAZ (amino acids 13-57) (Homo sapiens, UniProt P28347); experiment: TEAD1-TAZ HTRF (TR-FRET) protein-protein interaction assay; conditions: for TEAD1 TAZ HTRF combined: Max % Inhibition: TEAD1, TAZ peptide; for pEC50: TEAD1-TAZ HTRF, TR-FRET 665 nm/615 nm, read-out: TEAD1 TAZ HTRF combined: EC50
TEAD1 TAZ (amino acids 13-57), sequence (P28347 167-426 limits assumed): as the sequence (P28347 167-426 limits assumed) above
Procedure, shortened: as §1

[8] = target: TEAD3 TAZ (amino acids 13-57) (Homo sapiens, UniProt Q99594); experiment: TEAD3-TAZ HTRF (TR-FRET) protein-protein interaction assay; conditions: for TEAD3 TAZ HTRF combined: Max % Inhibition: TEAD3, TAZ peptide; for pEC50: TEAD3-TAZ HTRF, TR-FRET 665 nm/615 nm, read-out: TEAD3 TAZ HTRF combined: EC50
TEAD3 TAZ (amino acids 13-57), sequence (Q99594 173-435 limits assumed): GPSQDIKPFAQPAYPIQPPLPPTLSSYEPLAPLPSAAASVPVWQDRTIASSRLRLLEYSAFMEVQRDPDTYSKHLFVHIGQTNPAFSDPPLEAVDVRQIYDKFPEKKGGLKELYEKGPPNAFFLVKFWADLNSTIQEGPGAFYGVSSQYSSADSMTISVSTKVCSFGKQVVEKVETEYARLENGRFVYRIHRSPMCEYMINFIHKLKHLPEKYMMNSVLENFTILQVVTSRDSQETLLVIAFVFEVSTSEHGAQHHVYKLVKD
Procedure, shortened: as §1

TEAD3 YAP50-100, sequence (Q99594 173-435 limits assumed): as above

TEAD3 YAP50-100 HTRF combined: Max % Inhibition [1] [%]	pEC50 [1]	TEAD4 YAP50-100 HTRF combined: Max % Inhibition [2] [%]	pEC50 [2]	TEAD1 YAP50-100 HTRF combined: Max % Inhibition [3] [%]	pEC50 [3]	TEAD2 YAP50-100 HTRF combined: Max % Inhibition [4] [%]	pEC50 [4]	TEAD4 TAZ HTRF combined: Max % Inhibition [5] [%]	pEC50 [5]	TEAD2 TAZ HTRF combined: Max % Inhibition [6] [%]	pEC50 [6]	TEAD1 TAZ HTRF combined: Max % Inhibition [7] [%]	pEC50 [7]	TEAD3 TAZ HTRF combined: Max % Inhibition [8] [%]	pEC50 [8]	SMILES
61.0	7.22	48.5	5.46	53.0	7.30	64.0	8.00	56.5	5.52	64.0	8.00	52.5	7.30	49.0	7.30	CCCCCCCCCc1cc(=O)n2nc(-c3nccnc3C)c(C(=O)N3C[C@H](CF)[C@@H]3C)c2[nH]1 [Compound 71, 3-((2S,3S)-3-(fluoromethyl)-2-methylazetidine-1-carbonyl)-2-(3-methylpyrazin-2-yl)-5-nonylpyrazolo[1,5-a]pyrimidin-7(4H)-one]
76.0	6.80	54.0	7.52	77.0	7.15	73.0	7.70	56.0	7.52	75.0	7.70	74.0	7.10	71.5	6.77	[2H]C1([2H])C([2H])([2H])C([2H])([2H])C([2H])(c2ccc(-c3cc(=O)n4nc(-c5nccnc5C)c(C(=O)N5C[C@H](CF)[C@@H]5C)c4[nH]3)cc2)C([2H])([2H])C1([2H])[2H] [Compound 72, 3-[(2S,35)-3-(fluoromethyl)-2-methyl-azetidine-1-carbonyl]-2-(3-methylpyrazin-2-yl)-5-[4-(1,2,2,3,3,4,4,5,5,6,6-undecadeuteriocyclohexyl)phenyl]-4H-pyrazolo[1,5-a]pyrimidin-7-one]
